From ChEMBL document CHEMBL5528082 (J Med Chem, 2024)
pIC50: −log10 of the molar value. ≈ marks a conversion by molar mass, not a printed value.

Tests used:
Staphylococcus aureus [1] = assay: Antibacterial activity against Staphylococcus aureus ATCC 25923 incubated for 24 hrs by CLSI based broth microdilution assay; assay type: functional
Staphylococcus aureus [2] = assay: Antibacterial activity against TMP-resistant Staphylococcus aureus BHKS 721 incubated for 24 hrs by CLSI based broth microdilution assay; assay type: functional
[3] = Cytotoxicity against human NCM460 cells assessed as inhibition rate of cell growth at 100 uM incubated for 24 hrs by CCK8 assay relative to control; assay type: toxicity, cell-based
Staphylococcus aureus [4] = assay: Antibacterial activity against TMP-resistant Staphylococcus aureus BHKS 723 incubated for 24 hrs by CLSI based broth microdilution assay; assay type: functional
Staphylococcus aureus [5] = assay: Antibacterial activity against TMP-resistant Staphylococcus aureus BHKS 227 incubated for 24 hrs by CLSI based broth microdilution assay; assay type: functional
[6] = Cytotoxicity against HEK293 cells assessed as inhibition rate of cell growth at 100 uM incubated for 24 hrs by CCK8 assay relative to control; assay type: toxicity, cell-based; details: human
Staphylococcus aureus [7] = assay: Antibacterial activity against Staphylococcus aureus USA 300 incubated for 24 hrs by CLSI based broth microdilution assay; assay type: functional
[8] = test system: Dihydrofolate reductase (Staphylococcus aureus); details: dose 100.0 nM
Dihydrofolate reductase = Dihydrofolate reductase (Staphylococcus aureus, UniProt P0A017); assay: Inhibition of Staphylococcus aureus DHFR expressed in Escherichia coli BL21 (DE3) using DHF as substrate preincubated for 10 mins followed by substrate addition measured for 10 mins in presence of NADPH by spectrophotometry
Sequence of Dihydrofolate reductase (P0A017 whole entry): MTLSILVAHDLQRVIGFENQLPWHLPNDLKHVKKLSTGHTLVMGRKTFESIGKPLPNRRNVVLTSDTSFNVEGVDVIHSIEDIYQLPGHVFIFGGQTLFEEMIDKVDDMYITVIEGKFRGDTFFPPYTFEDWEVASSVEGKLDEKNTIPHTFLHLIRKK

SMILES | MIC (Staphylococcus aureus [1]) [µg/mL] | MIC (Staphylococcus aureus [2]) [µg/mL] | inhibition at 24 h, 100 µM [3] [%] | MIC (Staphylococcus aureus [4]) [µg/mL] | MIC (Staphylococcus aureus [5]) [µg/mL] | inhibition at 24 h, 100 µM [6] [%] | MIC (Staphylococcus aureus [7]) [µg/mL] | inhibition [8] [%] | pIC50 (Dihydrofolate reductase)
COc1cc(Cc2cnc(N)nc2N)cc(OC)c1OC [TRIMETHOPRIM] | 0.5 (≈ 1.72 µM) | 16 (≈ 55.1 µM) | 8.06 | 16 (≈ 55.1 µM) | 32 (≈ 110 µM) | 2.93 | 0.5 (≈ 1.72 µM) | – | –
COc1cc(C(C)C)c(Oc2cnc(N)nc2N)cc1-c1cccc(Cl)c1 | 0.063 (≈ 0.164 µM) | 4 (≈ 10.4 µM) | 18.8 | 4 (≈ 10.4 µM) | 1 (≈ 2.6 µM) | 29.3 | 0.063 (≈ 0.164 µM) | 67.2 | –
CCCC(C)Oc1cc(C(C)C)c(Oc2cnc(N)nc2N)cc1I (configuration not stated) | 0.063 (≈ 0.138 µM) | 4 (≈ 8.77 µM) | 11.5 | 4 (≈ 8.77 µM) | 2 (≈ 4.38 µM) | 55.6 | 0.063 (≈ 0.138 µM) | 31.7 | –
CC(C)c1ccc(-c2cc(Oc3cnc(N)nc3N)c(C(C)C)cc2OCC2CC2)cc1 | 1 (≈ 2.31 µM) | 2 (≈ 4.62 µM) | 30.2 | 4 (≈ 9.25 µM) | 4 (≈ 9.25 µM) | 19.3 | 1 (≈ 2.31 µM) | 75.4 | –
COc1cc(C(C)C)c(Oc2cnc(N)nc2N)cc1-c1ccncc1 | 1 (≈ 2.85 µM) | > 32 | 6.02 | 32 (≈ 91.1 µM) | 4 (≈ 11.4 µM) | 2.09 | 1 (≈ 2.85 µM) | 37.2 | –
CCOc1cc(C(C)C)c(Oc2cnc(N)nc2N)cc1I | 0.016 (≈ 0.0386 µM) | 4 (≈ 9.66 µM) | 13.9 | 4 (≈ 9.66 µM) | 0.25 (≈ 0.604 µM) | 57.9 | 0.016 (≈ 0.0386 µM) | 42.6 | –
CCCCOc1cc(C(C)C)c(Oc2cnc(N)nc2N)cc1-c1cc(Cl)cc(Cl)c1 | 2 (≈ 4.33 µM) | 8 (≈ 17.3 µM) | 42.5 | 8 (≈ 17.3 µM) | 8 (≈ 17.3 µM) | 43 | 1 (≈ 2.17 µM) | 75 | –
COc1cc(C(C)C)c(Oc2cnc(N)nc2N)cc1-c1ccccc1 | 0.5 (≈ 1.43 µM) | 32 (≈ 91.3 µM) | 74.2 | 32 (≈ 91.3 µM) | 2 (≈ 5.71 µM) | 49.2 | 0.25 (≈ 0.713 µM) | – | –
CCC(C)c1cc(OC)c(I)cc1Oc1cnc(N)nc1N (configuration not stated) | 0.125 (≈ 0.302 µM) | 8 (≈ 19.3 µM) | 62.7 | 16 (≈ 38.6 µM) | 1 (≈ 2.41 µM) | 28.5 | 0.125 (≈ 0.302 µM) | 56.3 | –
COc1cc(C(C)C)c(Oc2cnc(N)nc2N)cc1-c1ccccc1Cl | 4 (≈ 10.4 µM) | 32 (≈ 83.1 µM) | 29 | 32 (≈ 83.1 µM) | 16 (≈ 41.6 µM) | 37.8 | 4 (≈ 10.4 µM) | 74.3 | –
CC(C)c1cc(OCCc2ccccc2)c(I)cc1Oc1cnc(N)nc1N | 0.125 (≈ 0.255 µM) | 4 (≈ 8.16 µM) | 33.7 | 4 (≈ 8.16 µM) | 2 (≈ 4.08 µM) | 62 | 0.125 (≈ 0.255 µM) | 76.4 | –
CCC(C)Oc1cc(C(C)C)c(Oc2cnc(N)nc2N)cc1I (configuration not stated) | 0.016 (≈ 0.0362 µM) | 4 (≈ 9.04 µM) | 70.7 | 4 (≈ 9.04 µM) | 1 (≈ 2.26 µM) | 44.6 | 0.016 (≈ 0.0362 µM) | 50.8 | –
COc1cccc(OC)c1C(=O)N[C@@H]1C(=O)N2[C@@H]1SC(C)(C)[C@@H]2C(=O)O [METHICILLIN] | 1 (≈ 2.63 µM) | 1 (≈ 2.63 µM) | – | 1 (≈ 2.63 µM) | 64 (≈ 168 µM) | – | 128 (≈ 336 µM) | – | –
CC(C)c1cc(OCC2CCCCC2)c(I)cc1Oc1cnc(N)nc1N | 0.5 (≈ 1.04 µM) | 32 (≈ 66.3 µM) | 65 | > 32 | > 32 | 36.7 | 0.5 (≈ 1.04 µM) | 59.8 | –
COc1cc(C(C)C)c(Oc2cnc(N)nc2N)cc1C | 1 (≈ 3.47 µM) | 16 (≈ 55.5 µM) | 57.3 | 32 (≈ 111 µM) | 4 (≈ 13.9 µM) | 15.6 | 1 (≈ 3.47 µM) | 65.9 | –
COc1cc(OC)cc(-c2cc(Oc3cnc(N)nc3N)c(C(C)C)cc2OC)c1 | 2 (≈ 4.87 µM) | 32 (≈ 78 µM) | 66.8 | 32 (≈ 78 µM) | 8 (≈ 19.5 µM) | 29.7 | 2 (≈ 4.87 µM) | 40.5 | –
CCCCCCOc1cc(C(C)C)c(Oc2cnc(N)nc2N)cc1I | 1 (≈ 2.13 µM) | 8 (≈ 17 µM) | 66 | 4 (≈ 8.5 µM) | 8 (≈ 17 µM) | 41.5 | 1 (≈ 2.13 µM) | 42.9 | –

SMILES | MIC (Staphylococcus aureus [1]) [µg/mL] | MIC (Staphylococcus aureus [2]) [µg/mL] | inhibition at 24 h, 100 µM [3] [%] | MIC (Staphylococcus aureus [4]) [µg/mL] | MIC (Staphylococcus aureus [5]) [µg/mL] | inhibition at 24 h, 100 µM [6] [%] | MIC (Staphylococcus aureus [7]) [µg/mL] | inhibition [8] [%] | pIC50 (Dihydrofolate reductase)
CCCCOc1cc(C(C)C)c(Oc2cnc(N)nc2N)cc1-c1ccc(C(C)C)cc1 | 1 (≈ 2.3 µM) | 4 (≈ 9.2 µM) | 40.9 | 2 (≈ 4.6 µM) | 8 (≈ 18.4 µM) | 46.6 | 2 (≈ 4.6 µM) | 64 | –
COc1cc(C(C)C)c(Oc2cnc(N)nc2N)cc1-c1ccc2c(c1)OCCO2 | 0.5 (≈ 1.22 µM) | 16 (≈ 39.2 µM) | 64.7 | 16 (≈ 39.2 µM) | 4 (≈ 9.79 µM) | 19.6 | 0.25 (≈ 0.612 µM) | 27.2 | –
COc1cc(C(C)C)c(Oc2cnc(N)nc2N)cc1-c1cc(C)cc(C)c1 | 0.5 (≈ 1.32 µM) | 8 (≈ 21.1 µM) | 68.8 | 16 (≈ 42.3 µM) | 2 (≈ 5.28 µM) | 29.7 | 0.5 (≈ 1.32 µM) | 64.6 | –
CC(C)c1cc(OCC2CC2)c(-c2ccc(OC(F)(F)F)cc2)cc1Oc1cnc(N)nc1N | 0.5 (≈ 1.05 µM) | 2 (≈ 4.22 µM) | 31.3 | 4 (≈ 8.43 µM) | 4 (≈ 8.43 µM) | 22.9 | 0.5 (≈ 1.05 µM) | 78.9 | –
COc1cc(C(C)C)c(Oc2cnc(N)nc2N)cc1-c1ccc(C(F)(F)F)c(Cl)c1 | 1 (≈ 2.21 µM) | 4 (≈ 8.83 µM) | 41.9 | 4 (≈ 8.83 µM) | 4 (≈ 8.83 µM) | 42.1 | 2 (≈ 4.42 µM) | 65.7 | –
COc1cc(C(C)C)c(Oc2cnc(N)nc2N)cc1-c1ccc(Cl)c(Cl)c1 | 0.5 (≈ 1.19 µM) | 8 (≈ 19.1 µM) | 34.1 | 8 (≈ 19.1 µM) | 2 (≈ 4.77 µM) | 41 | 3 (≈ 7.15 µM) | 60.8 | –
COc1cc(C(C)C)c(Oc2cnc(NC(C)=O)nc2NC(C)=O)cc1I | > 32 | > 32 | 18.2 | > 32 | > 32 | 26.7 | > 32 | 32.6 | –
CCCCOc1cc(C(C)C)c(Oc2cnc(N)nc2N)cc1-c1ccc(C(F)(F)F)cc1 | 2 (≈ 4.34 µM) | 4 (≈ 8.69 µM) | 42.3 | 4 (≈ 8.69 µM) | 4 (≈ 8.69 µM) | 40.2 | 4 (≈ 8.69 µM) | 90.9 | –
CC(C)c1cc(O)c(I)cc1Oc1cnc(N)nc1N | 0.125 (≈ 0.324 µM) | 4 (≈ 10.4 µM) | 3 | 4 (≈ 10.4 µM) | 0.5 (≈ 1.29 µM) | 30.1 | 0.125 (≈ 0.324 µM) | 61.7 | –
CC(C)CCOc1cc(C(C)C)c(Oc2cnc(N)nc2N)cc1I | 0.125 (≈ 0.274 µM) | 8 (≈ 17.5 µM) | 35.6 | 8 (≈ 17.5 µM) | 2 (≈ 4.38 µM) | 64 | 0.125 (≈ 0.274 µM) | 79.6 | –
COc1cc(C(C)C)c(Oc2cnc(N)nc2N)cc1-c1ccc(O)cc1 | 0.125 (≈ 0.341 µM) | 1 (≈ 2.73 µM) | 53.1 | 8 (≈ 21.8 µM) | 0.5 (≈ 1.36 µM) | 22.9 | 0.063 (≈ 0.172 µM) | 72.3 | –
CC(C)c1cc(OCC2CC2)c(-c2cc(Cl)cc(Cl)c2)cc1Oc1cnc(N)nc1N | 0.5 (≈ 1.09 µM) | 2 (≈ 4.35 µM) | 35.8 | 4 (≈ 8.71 µM) | 2 (≈ 4.35 µM) | 27.5 | 0.5 (≈ 1.09 µM) | 89.2 | –
COc1cc(C(C)C)c(Oc2cnc(N)nc2N)cc1-c1ccc(-c2ccccc2)cc1 | 0.5 (≈ 1.17 µM) | 4 (≈ 9.38 µM) | 66 | 4 (≈ 9.38 µM) | 2 (≈ 4.69 µM) | 31.5 | 0.5 (≈ 1.17 µM) | 26.8 | –
COc1cc(C(C)C)c(Oc2cnc(N)nc2N)cc1-c1cc(C(F)(F)F)cc(C(F)(F)F)c1 | 4 (≈ 8.22 µM) | 8 (≈ 16.4 µM) | 64.2 | 8 (≈ 16.4 µM) | 8 (≈ 16.4 µM) | 38.6 | 8 (≈ 16.4 µM) | > 100 | –
CCc1cc(Oc2cnc(N)nc2N)c(C(C)C)cc1OC | 0.25 (≈ 0.827 µM) | 16 (≈ 52.9 µM) | 8.5 | 16 (≈ 52.9 µM) | 2 (≈ 6.61 µM) | 38.8 | 0.125 (≈ 0.413 µM) | – | 7.61
COc1ccc(-c2cc(Oc3cnc(N)nc3N)c(C(C)C)cc2OC)cc1 | 0.25 (≈ 0.657 µM) | 16 (≈ 42.1 µM) | 69.5 | 16 (≈ 42.1 µM) | 1 (≈ 2.63 µM) | 19.9 | 0.125 (≈ 0.329 µM) | 19.9 | –
CCc1cc(Oc2cnc(N)nc2N)c(C(C)CC)cc1OC (configuration not stated) | 1 (≈ 3.16 µM) | 16 (≈ 50.6 µM) | 48.4 | 32 (≈ 101 µM) | 4 (≈ 12.6 µM) | 23.2 | 1 (≈ 3.16 µM) | 4.32 | –
